Measured values: publication PMC4317638 (Emerging Microbes & Infections, 2014)
Like-named read-outs stand apart in the source and are kept apart here.

Assays:
[1] = system: Ebola VLP entry into HeLa cells; assay: microbe, parasite or virus in culture; format: cell-based, Ebola virus; conditions: for IC90: read-out: Block Ebola VLP entry IC90; for Emax: read-out: Block Ebola VLP entry Max. Inh.
Ebola virus infection [2] = conditions: cited from earlier work
in vitro = conditions: human, Cytotoxicity IC50
Ebola virus infection [3] = conditions: in vivo; cited from earlier work
[4] = read-out: Block Ebola VLP entry IC50
[5] = Zaire ebolavirus, HeLa, read-out: Block Ebola VLP entry IC50
[6] = Zaire ebolavirus, HeLa, read-out: IC50 of blocking Ebola VLP entry

| Compound | IC90 ([1]; Zaire ebolavirus, HeLa) [µM] | Emax ([1]; Zaire ebolavirus, HeLa) [%] | Block of Ebola virus infection (Ebola virus infection [2]) | IC50 (in vitro) [µM] | Efficacy in a mouse infection model (Ebola virus infection [3]) | Block Ebola VLP entry Max. Inh. [1] [%] | Selectivity Index [1] | IC50 [1, 4] [µM] | IC90 [1] [µM] | IC50 (HeLa cells; human) [µM] | IC50 [1, 5] [µM] | IC50 [1, 6] [µM] | Cytotoxicity (HeLa cells) | IC50 (HeLa cells) [µM] | IC50 ([1]; read-out: IC50 of blocking Ebola VLP entry) [µM] |
| --- | --- | --- | --- | --- | --- | --- | --- | --- | --- | --- | --- | --- | --- | --- | --- |
| CCN(CC)CCOc1ccc(C(=C(Cl)c2ccccc2)c2ccccc2)cc1 [Clomiphene] | 5.34 | 92 | effectively block Ebola virus infection | 91.4 | effective in a mouse infection model | – | – | – | – | – | – | – | – | – | – |
| COc1cccc2c1C(=O)c1c(O)c3c(c(O)c1C2=O)C[C@@](O)(C(C)=O)C[C@@H]3O[C@H]1C[C@H](N)[C@H](O)[C@H](C)O1 [Daunorubicin] | – | – | – | – | – | 96 | 103 fold | 2.43 | 4.45 | 250 | – | – | – | – | – |
| C[C@H]1O[C@@H](O[C@H]2[C@@H](O)C[C@H](O[C@H]3[C@@H](O)C[C@H](O[C@H]4CC[C@@]5(C)[C@H](CC[C@@H]6[C@@H]5C[C@@H](O)[C@]5(C)[C@@H](C7=CC(=O)OC7)CC[C@]65O)C4)O[C@@H]3C)O[C@@H]2C)C[C@H](O)[C@@H]1O [Digoxin] | 3.45 | 68 | – | 250 | – | – | 327 fold | – | – | – | 0.763 | 0.76 | cytotoxicity at a compound concentration similar to that effective in blocking Ebola VLP entry | – | – |
| N=C(N)NN=C(/C=C/c1ccc([N+](=O)[O-])o1)/C=C/c1ccc([N+](=O)[O-])o1 [Nitrovin] | – | – | – | – | – | 95 | – | 4.85 | 7.14 | – | – | – | – | > 500 | – |
| CN1CCN(CC/C=C2/c3ccccc3Sc3ccc(S(=O)(=O)N(C)C)cc32)CC1 [Thiothixene] | 7.18 | 100 | – | 70.1 | – | – | 36 fold | – | – | – | 1.92 | 1.9 | – | – | – |
| CCN(CC)CCOc1ccc2c(c1)C(=O)c1cc(OCCN(CC)CC)ccc1-2 [Tilorone] | 19 | 100 | – | > 500 | – | – | >146 fold | – | – | – | 3.43 | – | – | – | – |
| CC[C@@]1(O)C(=O)OCc2c1cc1n(c2=O)Cc2cc3c(CN(C)C)c(O)ccc3nc2-1 [Topotecan] | 10.8 | 107 | – | > 500 | – | – | >130 fold | – | – | – | 3.85 | – | – | – | – |
| CN(C)CCOc1ccc(/C(=C(/CCCl)c2ccccc2)c2ccccc2)cc1 [Toremifene] | 3.73 | 98 | effectively block Ebola virus infection | 180 | effective in a mouse infection model | – | 316 fold | – | – | – | 0.566 | 0.56 | – | – | 0.55 |
| CN1CCN(CCCN2c3ccccc3Sc3ccc(C(F)(F)F)cc32)CC1 [Trifluoperazine] | 12 | 97 | – | – | – | – | 21 fold | – | – | 97 | 4.48 | 4.4 | – | – | – |
| CC[C@]1(O)C[C@@H]2CN(CCc3c([nH]c4ccccc34)[C@@](C(=O)OC)(c3cc4c(cc3OC)N(C)[C@H]3[C@@](O)(C(=O)OC)[C@H](OC(C)=O)[C@]5(CC)C=CCN6CC[C@]43[C@@H]65)C2)C1 [Vinblastine] | 0.13 | 87 | – | > 500 | – | – | >10 324 fold | – | – | – | 0.048 | – | – | – | – |
| CC[C@]1(O)C[C@H]2CN(CCc3c([nH]c4ccccc34)[C@@](C(=O)OC)(c3cc4c(cc3OC)N(C=O)[C@H]3[C@@](O)(C(=O)OC)[C@H](OC(C)=O)[C@]5(CC)C=CCN6CC[C@]43[C@@H]65)C2)C1 [Vincristine] | 0.258 | 83 | – | > 500 | – | – | >3554 fold | – | – | – | 0.141 | 0.14 | – | – | – |
| CCC1=C[C@@H]2CN(C1)Cc1c([nH]c3ccccc13)[C@@](C(=O)OC)(c1cc3c(cc1OC)N(C)[C@H]1[C@@](O)(C(=O)OC)[C@H](OC(C)=O)[C@]4(CC)C=CCN5CC[C@]31[C@@H]54)C2 [Vinorelbine/Navelbine, Vinorelbine] | 0.19 | 90 | – | > 500 | – | – | >7546 fold | – | – | – | 0.066 | – | – | – | – |
| Spiramycin | – | – | – | – | – | 92 | – | – | 11.7 | – | – | – | – | > 500 | – |
